Measured values taken from the supplement of paper PMC10307832.

How the values were obtained:
Test in all cases: relative viability (nuclei count vs DMSO), 5 days (fraction); higher = more cells survive
Neratinib = compound: CCOc1cc2ncc(C#N)c(Nc3ccc(OCc4ccccn4)c(Cl)c3)c2cc1NC(=O)/C=C/CN(C)C [Neratinib]
Procedure, shortened: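 Five library-drug doses, separated by factors of √10, were pinned into 1536-well plates holding lung cancer cell lines after an overnight stay at 37 °C. Cells were fixed, permeabilised and Hoechst-stained in one step after 5 days without medium change, then imaged at 4×. Viability compares treated-well with vehicle-well nuclei, counted in MetaXpress, as a median across plates. Passing plates had control CV below 25% and at least one doubling.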

Neratinib + Trametinib = compound: CCOc1cc2ncc(C#N)c(Nc3ccc(OCc4ccccn4)c(Cl)c3)c2cc1NC(=O)/C=C/CN(C)C [Neratinib] + CC(=O)Nc1cccc(-n2c(=O)n(C3CC3)c(=O)c3c(Nc4ccc(I)cc4F)n(C)c(=O)c(C)c32)c1 [Trametinib] (partner 0.02 µM)
Procedure, shortened: (§1)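 Medians of duplicate plates are given as relative viability. That measure is the nuclei count in treated wells divided by the count in vehicle wells. Counts were taken on 4× images of lung cancer cell lines in 1536-well plates, 5 days after pin-tool dosing the day after seeding with one drug alone or a fixed anchor-drug dose plus five library-drug doses (not always all listed) in √10 steps.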

Neratinib + Tozasertib = compound: CCOc1cc2ncc(C#N)c(Nc3ccc(OCc4ccccn4)c(Cl)c3)c2cc1NC(=O)/C=C/CN(C)C [Neratinib] + Cc1cc(Nc2cc(N3CCN(C)CC3)nc(Sc3ccc(NC(=O)C4CC4)cc3)n2)n[nH]1 [Tozasertib] (partner 0.1 µM)
Procedure, shortened: as §1

Neratinib + AZD7762 = compound: CCOc1cc2ncc(C#N)c(Nc3ccc(OCc4ccccn4)c(Cl)c3)c2cc1NC(=O)/C=C/CN(C)C [Neratinib] + NC(=O)Nc1cc(-c2cccc(F)c2)sc1C(=O)N[C@H]1CCCNC1 [AZD7762] (partner 0.2 µM)
Procedure, shortened: as §1

Cell Line | relative viability (Neratinib; 0.01 µM) | relative viability (Neratinib; 0.03162 µM) | relative viability (Neratinib; 0.1 µM) | relative viability (Neratinib; 0.3162 µM) | relative viability (Neratinib; 1 µM) | relative viability (Neratinib + Trametinib; first compound 0.01 µM) | relative viability (Neratinib + Trametinib; first compound 0.03162 µM) | relative viability (Neratinib + Trametinib; first compound 0.1 µM) | relative viability (Neratinib + Trametinib; first compound 0.3162 µM) | relative viability (Neratinib + Trametinib; first compound 1 µM) | relative viability (Neratinib + Tozasertib; first compound 0.01 µM) | relative viability (Neratinib + Tozasertib; first compound 0.03162 µM) | relative viability (Neratinib + Tozasertib; first compound 0.1 µM) | relative viability (Neratinib + Tozasertib; first compound 0.3162 µM) | relative viability (Neratinib + Tozasertib; first compound 1 µM) | relative viability (Neratinib + AZD7762; first compound 0.01 µM) | relative viability (Neratinib + AZD7762; first compound 0.03162 µM) | relative viability (Neratinib + AZD7762; first compound 0.1 µM) | relative viability (Neratinib + AZD7762; first compound 0.3162 µM) | relative viability (Neratinib + AZD7762; first compound 1 µM)
H3255 | 1.07 | 0.985 | 0.78 | 0.327 | 0.224 | 0.619 | 0.602 | 0.426 | 0.241 | 0.236 | 0.759 | 0.721 | 0.423 | 0.233 | 0.236 | 1.01 | 0.824 | 0.588 | 0.288 | 0.247
EPLC-272H | 0.867 | 0.869 | 0.841 | 0.666 | 0.358 | 0.278 | 0.321 | 0.253 | 0.248 | 0.22 | – | 0.204 | 0.267 | 0.269 | 0.203 | 0.209 | 0.193 | 0.112 | 0.181 | 0.205
SW 1573 | 1.09 | 1.18 | 0.828 | 0.912 | 0.716 | 0.554 | 0.57 | 0.497 | 0.593 | 0.276 | 0.203 | 0.152 | 0.194 | 0.177 | 0.122 | – | – | – | – | –
NCI-H1793 | 1.11 | 1 | 0.682 | 0.749 | 0.527 | 0.454 | 0.509 | 0.407 | 0.361 | 0.253 | 0.317 | 0.354 | 0.293 | 0.176 | 0.143 | 0.629 | 0.503 | 0.346 | 0.239 | 0.13
EKVX | 1.04 | 0.976 | 0.812 | 0.43 | 0.25 | 0.353 | 0.334 | 0.315 | 0.139 | 0.162 | 0.416 | 0.42 | 0.345 | 0.197 | 0.13 | 0.726 | 0.699 | 0.609 | 0.441 | 0.199
ChaGo-K-1 | 0.995 | 1.12 | 0.896 | 0.865 | 0.971 | 0.886 | 0.941 | 0.754 | 0.882 | 0.845 | 0.233 | 0.224 | 0.221 | 0.215 | 0.229 | 0.93 | 0.879 | 0.648 | 0.842 | 0.788
NCI-H2347 | 1.07 | 1.08 | 0.904 | 1.08 | – | 0.264 | 0.317 | 0.262 | 0.248 | 0.266 | 0.539 | 0.624 | – | 0.541 | 0.384 | 0.727 | 0.733 | 0.533 | 0.756 | 0.457
EMC-BAC-2 | 1.32 | 1.01 | 0.977 | 0.935 | 0.722 | 0.949 | 0.885 | 0.855 | 0.793 | 0.671 | 0.326 | 0.352 | 0.317 | 0.314 | 0.188 | 1.19 | 1.19 | 1 | 1.08 | 0.974
LOU-NH91 | 0.988 | 0.92 | 0.796 | 0.691 | 0.676 | 0.795 | 0.746 | 0.698 | 0.67 | 0.597 | 0.635 | 0.665 | 0.527 | 0.503 | 0.411 | 0.791 | 0.728 | 0.717 | 0.664 | 0.496
LU99A | 0.948 | 1.04 | 0.908 | 0.891 | 0.646 | 0.578 | – | 0.515 | 0.527 | 0.43 | 0.286 | 0.279 | 0.274 | 0.25 | 0.19 | 0.426 | 0.403 | 0.314 | 0.374 | 0.263
NCI-H1395 | 0.994 | 0.948 | 0.992 | 0.917 | 0.654 | 1.18 | 1.18 | 1.11 | 1.11 | 0.65 | – | 0.76 | 0.688 | 0.73 | 0.519 | 0.419 | 0.42 | 0.399 | 0.388 | 0.389
NCI-H520 | 1.11 | 1.07 | 0.937 | 0.922 | 0.649 | 0.642 | 0.804 | – | 0.605 | 0.421 | 0.455 | 0.418 | 0.401 | 0.433 | 0.33 | – | – | – | – | –
201T | 1.01 | 0.996 | 0.929 | 1.02 | 0.934 | 0.755 | – | 0.688 | 0.707 | 0.707 | 1.14 | 0.945 | 0.848 | 0.858 | 0.766 | 0.672 | 0.618 | 0.447 | 0.59 | 0.527
NCI-H1944 | 1.18 | 0.977 | 0.865 | 0.767 | 0.569 | 0.434 | 0.396 | 0.364 | 0.311 | 0.286 | 0.255 | 0.248 | 0.221 | 0.218 | 0.16 | 0.584 | 0.621 | 0.4 | 0.505 | 0.313
NCI-H3122 | – | 1.02 | 0.931 | 0.991 | 0.5 | 0.29 | 0.214 | 0.2 | 0.227 | 0.175 | 0.437 | 0.422 | 0.388 | 0.375 | 0.135 | 1.05 | 1 | 0.88 | 1.01 | 0.438
NCI-H1703 | 1.16 | 0.951 | 0.909 | 0.778 | 0.388 | – | – | – | – | – | – | – | – | – | – | 0.148 | 0.135 | 0.164 | 0.111 | 0.118
NCI-H1755 | – | 1.01 | 0.858 | 1.02 | 1.05 | 0.761 | 0.814 | 0.646 | 0.752 | 0.809 | 0.619 | 0.617 | 0.613 | 0.515 | 0.543 | 0.492 | 0.53 | 0.356 | 0.65 | 0.407
